Results from patent US11517550B2 (priority 2008, dated 2022).

Each substance was assayed on Clostridium perfringens ATCC 13124. Details: brain heart infusion broth, pH 6.0, 30° C., 0% oxygen.
Type: cell-based

| Substance | MIC values (%) |
| --- | --- |
| C8 lactylate | 0.05 |
| C10 lactylate | 0.04 |
| C12 lactylate | 0.002 |
| C14 lactylate | 0.001 |
| C16 lactylate | 0.002 |
| C18:1 lactylate | 0.02 |
